# Where two headings read alike, the source gives them in different places.
# How the values were obtained:
# [1] = test system: PHHs; settings: 150 minutes, 50 μM 7HC
# [2] = test system: HepG2
# [3] = test system: HEK293
# [4] = test system: MCF7
# [5] = test system: sulfotransferase; settings: ref Ishii and Tamura, 2003, cited from earlier work
# [6] = test system: CYP1A2; assay: CYP450-Glo bioluminescent assay CYP1A2 in Tox21 cell lines; assay type: cell-based; settings: 24 hours pretreatment
# [7] = test system: CYP3A4/5; assay: 1-Hydroxymidazolam formation from midazolam in PHH suspensions; assay type: in vitro ADME, human
# [8] = test system: CYP3A4/5; assay: 1-Hydroxymidazolam formation from midazolam in HepG2; assay type: in vitro ADME, human
# [9] = test system: CYP1A2; assay: Acetaminophen formation from phenacetin in HepG2; assay type: in vitro ADME, human
# [10] = test system: CYP1A2; assay: Acetaminophen formation from phenacetin in C3H10T1/2; assay type: in vitro ADME, mouse
# [11] = test system: 50-donor pool PHHs; settings: human, 1 μM
# [12] = test system: HepG2; settings: human, 1 μM
# [13] = test system: HEK293; settings: human, 1 μM
# [14] = test system: MCF7; settings: human, 1 μM
# [15] = Metabolic clearance; settings: human, MCF7 cells, Mean Half-life, MCF7, 1 μM, one-phase exponential decay
# [16] = test system: MCF7; assay: Metabolic clearance; settings: MCF7, 1 μM
# [17] = Metabolic clearance; settings: human, HepG2 cells, Mean Half-life, HepG2, 1 μM, one-phase exponential decay
# [18] = test system: HepG2; assay: Metabolic clearance; settings: HepG2, 1 μM
# [19] = Metabolic clearance; settings: human, HEK293 cells, Mean Half-life, HEK293, 1 μM, one-phase exponential decay
# [20] = test system: HEK293; assay: Metabolic clearance; settings: HEK293, 1 μM
# [21] = Metabolic clearance; settings: human, Mean Half-life, 50-donor pool PHHs, one-phase exponential decay
# [22] = test system: 50-donor pool PHHs; assay: Metabolic clearance; settings: 1 μM
# [23] = molecular target: T1, CYP2B6 (Homo sapiens, UniProt P20813); assay: Hydroxybupropion formation from bupropion in HepG2; assay type: in vitro ADME; settings: HepG2 cells
# T1 sequence (P20813 1-491): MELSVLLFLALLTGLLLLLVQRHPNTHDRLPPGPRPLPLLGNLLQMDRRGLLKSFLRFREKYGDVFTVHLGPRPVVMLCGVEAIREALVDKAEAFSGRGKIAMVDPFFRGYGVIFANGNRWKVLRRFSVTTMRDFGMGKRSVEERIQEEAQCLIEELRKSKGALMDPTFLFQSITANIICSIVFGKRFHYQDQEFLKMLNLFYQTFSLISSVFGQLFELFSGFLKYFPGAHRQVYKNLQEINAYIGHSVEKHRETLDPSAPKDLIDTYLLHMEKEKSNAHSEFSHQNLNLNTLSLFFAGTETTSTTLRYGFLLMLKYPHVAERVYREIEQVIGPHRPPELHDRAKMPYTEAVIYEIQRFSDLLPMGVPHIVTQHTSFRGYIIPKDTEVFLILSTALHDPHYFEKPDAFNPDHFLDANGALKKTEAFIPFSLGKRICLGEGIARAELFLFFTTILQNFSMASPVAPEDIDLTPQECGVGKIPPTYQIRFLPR
# [24] = molecular target: T1, CYP2B6; assay: Hydroxybupropion formation from bupropion in HEK293; assay type: in vitro ADME; settings: HEK293 cells
# [25] = molecular target: T1, CYP2B6; assay: Hydroxybupropion formation from bupropion in HCT116; assay type: in vitro ADME; settings: HCT116 cells
# [26] = test system: CYP2B6; assay: Hydroxybupropion formation from bupropion in C3H10T1/2; assay type: in vitro ADME, mouse; settings: C3H10T1/2, 24 h, Michaelis-Menten fit
# [27] = HepG2, 24 h, Michaelis-Menten fit
smiles,measurement,setting,value
"O=C(O)[C@H]1O[C@@H](Oc2ccc3ccc(=O)oc3c2)[C@H](O)[C@@H](O)[C@@H]1O [7HCG, 7-hydroxycoumarin glucuronide]",Phase II Metabolite Formation Rate,[1],190 ± 41.8 pmol/minute-million cells
same,Phase II Metabolite Formation Rate,"[2]; HepG2, 150 minutes, 50 μM 7HC",1.96 ± 0.887 pmol/minute-million cells
same,Phase II Metabolite Formation Rate,"[2]; HepG2, 24 hours, 50 μM 7HC",2.89 ± 0.563 pmol/minute-million cells
same,Phase II Metabolite Formation Rate,"[3]; HEK293, 150 minutes, 50 μM 7HC",-------------^1
same,Phase II Metabolite Formation Rate,"[3]; HEK293, 24 hours, 50 μM 7HC",-------------^1
same,Phase II Metabolite Formation Rate,"[4]; MCF7, 150 minutes, 50 μM 7HC",1.34 ± 0.206 pmol/minute-million cells
same,Phase II Metabolite Formation Rate,"[4]; MCF7, 24 hours, 50 μM 7HC",0.809 ± 0.0457 pmol/minute-million cells
CC(C)(c1ccc(O)cc1)c1ccc(O)cc1 [bisphenol A],depletion,[5]; after 5 days incubations with 10 μM exposure,4%
same,Km,[5]; read-out: apparent Km for sulfotransferase activity,74 µM
"Nn1nnc2ccccc21 [ABT, aminobenzotriazole]",inhibition of CYP1A2 luminescent metabolite formation,"[6]; ABT 1 mM, HepG2, MCF7, CHO-K1, C3H10T1/2, GH3TRE-Luc",only inhibited in CHO-K1 cells
"Cc1ncc2n1-c1ccc(Cl)cc1C(c1ccccc1F)=NC2 [Midazolam, midazolam]",Vmax CYP3A4/5,"[7]; PHH, 30 min, Michaelis-Menten fit",187 ± 8.35
same,Km at 30 min,[7]; human,10.7 ± 1.34 µM
same,Vmax CYP3A4/5,[8]; [27],0.0177 ± 0.000912
same,Km at 24 h,"[8]; human, HepG2 cells",969 ± 268 nM
CCOc1ccc(NC(C)=O)cc1 [Phenacetin],Vmax CYP1A2,[9]; [27],0.320 ± 0.0234
same,Km at 24 h,"[9]; human, HepG2 cells",38.4 ± 11.8 µM
same,Vmax CYP1A2,"[10]; C3H10T1/2, 24 h, Michaelis-Menten fit",0.168 ± 0.0393
same,Km at 24 h,"[10]; mouse, C3H10T1/2 cells",247 ± 111 µM
"Oc1ccc(C(c2ccc(O)cc2)(C(F)(F)F)C(F)(F)F)cc1 [BPAF, bisphenol AF]",Percent Depletion 240 min,[11]; 240 min,82 ±/- 2.9%
same,Mean Half-life,[11]; hepatocytes,86.3 min
same,Percent Depletion 240 min,[12]; 240 min,36 ±/- 8.2%
same,Percent Depletion 24 hour,[12]; 24 h,66 ±/- 6.6%
same,Mean Half-life (fast),[12]; other cell line,31.2 min
same,Mean Half-life (slow),[12]; other cell line,"1,626 min"
same,Percent Depletion 240 min,[13]; 240 min,36 ±/- 5.4%
same,Percent Depletion 24 hour,[13]; 24 h,60 ±/- 4.5%
same,Mean Half-life (slow),[13]; other cell line,"~1,887 min"
same,Percent Depletion 240 min,[14]; 240 min,42 ±/- 7.7%
same,Percent Depletion 24 hour,[14]; 24 h,55 ±/- 7.4%
same,Mean Half-life (fast),[14]; other cell line,23.3 min
same,Mean Half-life (slow),[14]; other cell line,"~9,684 min"
"O=c1ccc2ccc(O)cc2o1 [7HC, 7-hydroxycoumarin]",half-life at 1 μM,[15],~290 min
same,Percent Depletion 240 min,[16],40%
same,Mean Half-life,[16]; one-phase exponential decay,292.5 min
same,half-life at 1 μM,[17],~290 min
same,Percent Depletion 240 min,[18],27%
same,Mean Half-life,[18]; one-phase exponential decay,290.6 min
same,half-life at 1 μM,[19],~210 min
same,Percent Depletion 240 min,[20],50%
same,Percent Depletion 24 hour,[20],99%
same,Mean Half-life,[20]; one-phase exponential decay,209.9 min
same,half-life at 1 μM,[21],~23 min
same,Percent Depletion 240 min,[22],99%
same,Mean Half-life,[22]; one-phase exponential decay,22.7 min
"CC(NC(C)(C)C)C(=O)c1cccc(Cl)c1 (stereo not drawn) [Bupropion, bupropion]",Km at 24 h,[23],4.79 ± 5.48 µM
same,Km at 24 h,[24],1.26 ± 0.734 mM
same,Km at 24 h,[25],1.91 ± 1.05 mM
same,Vmax CYP2B6,[26],0.0422 ± 0.0119
"O=C(O)[C@H]1O[C@@H](Oc2ccc(C(c3ccc(O)cc3)(C(F)(F)F)C(F)(F)F)cc2)[C@H](O)[C@@H](O)[C@@H]1O [BPAF G, bisphenol AF glucuronide]",Phase II Metabolite Formation Rate,"[2]; HepG2, 150 minutes, 50 μM BPAF or BPS",-------------^1
same,Phase II Metabolite Formation Rate,"[3]; HEK293, 150 minutes, 50 μM BPAF or BPS",-------------^1
same,Phase II Metabolite Formation Rate,"[3]; HEK293, 24 hours, 50 μM BPAF or BPS",-------------^1
same,Phase II Metabolite Formation Rate,"[4]; MCF7, 150 minutes, 50 μM BPAF or BPS",-------------^1
same,Phase II Metabolite Formation Rate,"[4]; MCF7, 24 hours, 50 μM BPAF or BPS",-------------^1
"COc1ccc2[nH]c([S+]([O-])Cc3ncc(C)c(OC)c3C)nc2c1 (stereo not drawn) [OMP, omeprazole]",induction of CYP1A2 luminescence,"[6]; OMP 100 μM, Tox21 cell lines",only marginal increased luminescence
